According to ChEMBL document CHEMBL2074149, “Structural and functional characteristics and tissue distribution pattern of rat OCTN1, an organic cation transporter, cloned from placenta” (Biochim Biophys Acta, 2000):

How the values were obtained:
Type in all cases: functional, cell-based
[1] = biological target: T1, OCTN1 (Solute carrier family 22 member 4, SLC22A4) (Rattus norvegicus, UniProt Q9R141); test: TP_TRANSPORTER: inhibition of TEA uptake by 1-methyl-4-phenylpyridinium at 5mM in Octn1-HRPE cells; parameters: scale not given: the % may be the effect or the level left; conditions: human, HRPE cells that express Octn1, probe TEA (tetraethylammonium); read-out: Activity
T1 sequence (Q9R141 whole entry): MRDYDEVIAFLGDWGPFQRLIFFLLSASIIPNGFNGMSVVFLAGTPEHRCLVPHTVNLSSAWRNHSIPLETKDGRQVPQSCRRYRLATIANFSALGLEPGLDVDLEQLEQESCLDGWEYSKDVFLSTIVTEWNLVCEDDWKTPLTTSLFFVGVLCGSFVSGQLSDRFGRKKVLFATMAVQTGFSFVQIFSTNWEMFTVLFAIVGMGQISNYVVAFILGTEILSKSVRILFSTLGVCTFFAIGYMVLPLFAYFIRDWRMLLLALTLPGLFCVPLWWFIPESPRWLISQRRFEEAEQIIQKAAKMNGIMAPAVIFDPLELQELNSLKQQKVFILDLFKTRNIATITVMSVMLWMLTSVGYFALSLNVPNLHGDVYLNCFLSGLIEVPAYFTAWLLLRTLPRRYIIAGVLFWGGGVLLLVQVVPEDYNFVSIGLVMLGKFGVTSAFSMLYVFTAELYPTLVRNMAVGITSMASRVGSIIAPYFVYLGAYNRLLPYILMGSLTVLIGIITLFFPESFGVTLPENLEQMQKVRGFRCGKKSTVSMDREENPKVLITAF

[2] = biological target: T2, Solute carrier family 22 member 4 (Rattus norvegicus, UniProt Q9R141); test: TP_TRANSPORTER: inhibition of TEA uptake in Octn1-HRPE cells
T2 sequence (Q9R141 whole entry): T1 sequence (Q9R141 whole entry)

[3] = biological target: T2, Solute carrier family 22 member 4; test: TP_TRANSPORTER: inhibition of TEA uptake by Amiloride at 1mM in Octn1-HRPE cells; parameters: scale not given: the % may be the effect or the level left; conditions: human, 1000 µM
[4] = biological target: T1, OCTN1 (Solute carrier family 22 member 4, SLC22A4); test: TP_TRANSPORTER: inhibition of TEA uptake by Imipramine at 1mM in Octn1-HRPE cells; parameters: scale not given: the % may be the effect or the level left; conditions: human, HRPE cells that express Octn1, probe TEA (tetraethylammonium); read-out: Activity
[5] = biological target: T1, OCTN1 (Solute carrier family 22 member 4, SLC22A4); test: TP_TRANSPORTER: inhibition of TEA uptake by Verapamil at 5mM in Octn1-HRPE cells; parameters: scale not given: the % may be the effect or the level left; conditions: human, HRPE cells that express Octn1, probe TEA (tetraethylammonium); read-out: Activity

Compound	IC50 [2] [µM]	further results
C[n+]1ccc(-c2ccccc2)cc1	–	activity at 5000 µM [1]: 62%
CN(C)c1nc(N)c(C(=O)NC(=N)N)nc1Cl	200	–
N=C(N)NC(=O)c1nc(Cl)c(N)nc1N [AMILORIDE]	–	Activity [3]: 79%
CN/C(=N/CCSCc1nc[nH]c1C)NC#N [CIMETIDINE]	1500	–
CN(C)CCCN1c2ccccc2CCc2ccccc21 [IMIPRAMINE]	–	activity at 1000 µM [4]: 31%
COc1ccc(CCN(C)CCCC(C#N)(c2ccc(OC)c(OC)c2)C(C)C)cc1OC (centres undefined) [VERAPAMIL]	–	activity at 5000 µM [5]: 20%

The next lines start with results.

IC50 [2] [µM]	Compound	further results
80	CNCCCN1c2ccccc2CCc2ccccc21 [DESIPRAMINE]	–
1000	CCN(CC)CCNC(=O)c1ccc(N)cc1 [PROCAINAMIDE]	–
1000	CC[N+](CC)(CC)CC [TETRYLAMMONIUM]	–
